Consider 1 compound from patent US12295919B2, “Methods of treatment and prevention using 4-deoxy-L-erythro-5-hexoseulose uronic acid” (MIE UNIVERSITY, priority 2022, dated 2025).

One data set relates to DAF-16. As to the kind of experiment: Expression and activation (nuclear localization) of DAF-16. It is filed as in vivo, C. elegans. The following applies: 72 hours at 20° C.; for nuclear localization rate of DAF-16: TJ356 strain (Control 2.2%); for intermediate localization rate of DAF-16: TJ356 strain (Control 24.4%). The text has this: The FOXO gene daf-16 is one of the components of the insulin/IGF-1 signaling pathway that controls many biological processes such as lifespan, metabolism, and stress response. When DAF-16 is localized in the nucleus, it activates the transcription of numerous genes involved in the regulation of stress tolerance promotion and pathogen protection. Therefore, the involvement of DEH in the activation of daf-16 was examined using the C. elegans TJ356 strain.
The TJ356 strain (zls356 [daf-16p::daf-16a/b::GFP+rol-6 (su1006)]) is a nematode, in which a fluorescent protein GFP has been inserted into the daf-16 promoter, and nuclear translocation by daf-16 gene activation can be observed by fluorescence of the GFP.
Age-synchronized TJ356 strain was cultured using mNGM medium at 20° C. for 72 hours. As evaluation groups (samples), positive control (group heat-treated at 37° C. for 30 minutes after 72-hour culture), control (DEH−), 25 mM DEH and 50 mM DEH were used. E. coli OP50-1 was used as nematode food.
After culturing the TJ356 strain, 15 nematodes in each group were observed under a microscope to confirm the presence or absence of nuclear localization of the DAF-16 protein (GFP fluorescence) (n=60).
Each data is shown as mean±standard error. […] Thus, DEH increased the nuclear localization ratio of DAF-16 as compared to the Control.

A further data set deals with C. elegans strain HA759. Put plainly: Inhibitory effect on neuronal death in PolyQ disease model. It is filed as in vivo. The conditions noted are these: 120 hours after start of culturing. An excerpt:
The effect of DEH on neuronal death of the C. elegans strain HA759, which is a PolyQ disease model, was also investigated. HA759 strain (rtIs11 [osm-10p:: GFP+osm−10p: HtnQ150+dpy−20 (+)]) is a C. elegans strain which expresses Htn-Q150 (human huntingtin) and the fluorescent protein GFP downstream of the osm-10 gene when it receives a signal from ASH neurons. In accordance with the duration of the culture time, HA759 causes death of ASH neurons due to progressive neurodegeneration owing to accumulation of PolyQ.
Age-synchronized HA759 strain was cultured using mNGM medium. Control (DEH−), 25 mM DEH and 50 mM DEH were used as evaluation groups (samples). E. coli OP50-1 was used as nematode food.
Ten nematodes each were observed under a microscope immediately after the start of culture of the HA759 strain and after 24, 48, 72, and 120 hours to confirm whether nerve cells were alive or dead (n=30).
Each data is shown as mean±standard error. […] Thus, DEH inhibited, in a dose-dependent manner, PolyQ-induced neuronal death in the HA759 strain. Because DEH suppresses (reduces) PolyQ aggregation and neuronal cell death, DEH can treat and/or prevent symptoms of PolyQ disease, such as involuntary movement and dementia.

For data set [1], the system named is human iPS cell-derived intestinal epithelial cells. Put plainly: Membrane permeability using human iPS cell-derived intestinal epithelial monolayer. It is filed as in vitro ADME. On the procedure: The permeability of DEH through membrane was confirmed using human iPS cells. […] Therefore, results closer to the human body can be obtained using iPS cell-derived intestinal epithelial cells as compared to those using the Caco-2 cell model test.
Using a CO2 incubator (37° C., 5% CO2), human iPS cell-derived intestinal epithelial cells were cultured for 13 to 20 days to prepare a monolayer.
The membrane permeability of the human iPS cell-derived intestinal epithelial monolayer membrane was evaluated by the method described above in <Test 1> using an electrical resistance system (voltohmmeter) sold under the trademark MILLICELL™ ESR-2. Monolayer films, in which the TEER value was more […], were used in the test.
Permeability (absorption) of substances, which were added to the AP side, to the BL side, or permeability (excretion) of substances, which were added to the BL side, to the AP side was evaluated. The above-mentioned SIM measurement of LC/MS was used in the detection and quantification of DEH.

Data set [2] concerns blood-brain barrier in vitro reconstitution system model (MBT-24H). As to the kind of experiment: BBB permeability using cynomolgus monkey-type BBB kit (MBT-24H). Format: in vitro ADME. On the procedure: The permeability of DEH was evaluated using a commercially available BBB kit (blood-brain barrier in vitro reconstitution system model (MBT-24H: PharmaCo-Cell Company, Ltd.)). The kit uses cynomolgus monkey-derived cells as endothelial cells. The permeability of DEH was evaluated using this model.
The reconstituted cynomolgus monkey BBB model has a structure closer to that of human BBB as compared to that of the kit in <Test 2>, so it was considered to be a better model for evaluating whether DEH permeates the human BBB.
After the test, the DEH concentration on the brain parenchyma side was obtained, and the DEH permeability was calculated.

The subject of the next data set is Caco-2 cell monolayer. As to the kind of experiment: Membrane permeability using Caco-2 cell monolayer. It is filed as in vitro ADME, human. The method, then: When Caco-2 cells (human colon cancer-derived cell line) are cultured in a monolayer on a porous membrane filter, they differentiate into intestinal epithelium-like cells. Owing to the differentiation, they express brush borders and tight junctions similar to columnar epithelial cells of the small intestine, as well as metabolic enzymes and transporters present in the human small intestine. Therefore, the Caco-2 cell monolayer is widely used as a model to predict absorption from the intestinal tract.
Using the Caco-2 cell monolayer, the membrane permeability of DEH was confirmed.
Next, using the model apparatuses shown in FIGS. 2A-2B, the electrical resistance value (transepithelial electrical resistance (TEER) value) using an electrical resistance system (voltohmmeter) sold under the trademark MILLICELL™ ESR-2 (FIG. 2A) and permeability using Lucifer Yellow (FIG. 2B) were measured to confirm that a single layer film was formed. The single layer films, in which the TEER value was more than 300 Ω·cm2 and the permeability of Lucifer yellow was 0.3% to 2%, were used in the test.
Permeability (absorption) of substances, which were added to the apical (AP: apical, luminal) side, to the basolateral (BL) side, or permeability (excretion) of substances, which were added to the BL side, to the AP side was evaluated.
An ER value of less than 2 means absorption from the intestinal tract, and an ER value of 2 or more means excretion from the intestinal tract.
(In general: Caco-2 monolayers are a common model of the intestinal barrier.)

The subject of a further data set is PC-12 cells. Put plainly: Neurite outgrowth activity using PC-12 cells. It is filed as cell-based, rat. The method, then: Next, the characteristics of DEH were investigated using PC-12 cells. PC-12 cells are cells that were isolated from rat adrenal medullary pheochromocytoma and established as a strain. Nerve growth factor (NGF) is not needed for survival of PC-12 cells, but proliferation is arrested, nerve fibers elongate, and sympathetic ganglion neuron-like properties develop by using NGF. Owing to these properties, PC-12 cells have been used as a model for neural differentiation.
PC-12 cells were cultured and divided into 8 subgroups: no addition (Control), DEH addition (10, 50, 100 μM), NGF addition, NGF addition+DEH addition (10, 50, 100 μM), and elongation of neurite formation was observed. ImageJ software was used to measure neurite length. FIGS. 5A-5C show photographs of cells observed under a microscope; in FIG. 6 the neurite length (μm) of each subgroup is shown. Each data is shown as mean±standard error of triplicate tests. Statistical analysis was performed using the t-test, and a significance level of less than 5% (p<0.05) was considered significant.
NGF addition+DEH addition (50, 60, 70, 80, 90, 100 μM) was divided into 6 subgroups, and the elongation and number of neurites were observed and are shown in FIGS. 7 and 8. Each data is shown as mean±standard error of triplicate tests.

In data set [3] the test system is blood-brain barrier in vitro reconstitution system model (RBT-24H). As to the kind of experiment: BBB permeability using rat-type BBB kit (RBT-24H). It is filed as in vitro ADME, Wistar rat. The method, then: Next, DEH permeability was evaluated using a commercially available BBB kit (blood-brain barrier in vitro reconstitution system model (RBT-24H: PharmaCo-Cell Company Ltd.)). This kit uses endothelial cells, pericytes and astrocytes of Wistar rat origin. The above-mentioned SIM measurement of LC/MS was used in the detection and quantification of DEH. A 1000 μg/mL DEH solution was added to the blood vessel side, and after 30 minutes, culture medium on the brain parenchyma side was collected. Then, the DEH concentration in the collected culture medium was measured.
A summary of data, which examined permeability subgroups that migrate into the brain for various compounds, are shown in Table 3.

Where [4] appears, read: human iPS cell-derived intestinal epithelial monolayer, mean ± s.e.
[5] abbreviates: cynomolgus monkey BBB kit, mean ± s.e.

Consider `O=C[C@@H](O)[C@@H](O)CC(=O)C(=O)O` [DEH, 4-deoxy-L-erythro-5-hexoseulose uronic acid], for which the “nuclear localization rate of DAF-16” value with DAF-16 (25 mM DEH) is 40.0%; with DAF-16 (50 mM DEH), 51.1%. Moreover, the “intermediate localization rate of DAF-16” value is 35.6% in the data set on DAF-16 (25 mM DEH) and 31.1% in the data set on DAF-16 (50 mM DEH). For the same compound, the “neuronal death suppressed (decreased) as compared to the Control” value is reported as 20.3% with C. elegans strain HA759 (25 mM DEH) and 46.4% in the data set with C. elegans strain HA759 (50 mM DEH). For the same compound, the “Efflux ratio (ER) (B-A/A-B)” value worked out at 0.907 in data set [1] (human iPS cell-derived intestinal epithelial monolayer) and 0.766 in data set [2] (cynomolgus monkey BBB kit). The “Papp AP to BL” value is 8.78 ± 1.49 ×10^−6 cm/s in data set [1] (setting [4]) and 5.13 ± 0.22 ×10^−6 cm/s with Caco-2 cell monolayer (Caco-2 monolayer, absorption direction, mean ± s.e.). For the same compound, the “Papp BL to AP” value in data set [1] (setting [4]) is reported as 7.97 ± 1.26 ×10^−6 cm/s; with Caco-2 cell monolayer (Caco-2 monolayer, excretion direction, mean ± s.e.), 2.78 ± 0.12 ×10^−6 cm/s. In addition, the Absorption category entry (in data set [1] (iPS-derived monolayer Papp compared with Table 2); in the data set on Caco-2 cell monolayer (Caco-2 Papp compared with Table 2)) was “moderate” each time. The “Papp Blood side (A) to Brain side (B)” value in data set [2] (setting [5]) is listed as 2.88 ± 0.24 ×10^−6 cm/s. Also, the “Papp Brain side (B) to Blood side (A)” value in data set [2] (setting [5]) was 2.20 ± 0.55 ×10^−6 cm/s. For the same compound, the Permeability category entry in data set [2] (monkey BBB kit, Papp compared with Table 3) is “low (2~10)”; in data set [3] (Papp compared with Table 3), “good (10~20)”. Further, in the data set on Caco-2 cell monolayer (Caco-2 monolayer, ER less than 2 means absorption from the intestinal tract), the “ER (B→A/A→B)” value is 0.542. Further, the “neurite outgrowth, DEH alone” value with PC-12 cells (DEH 10, 50, 100 μM without NGF) is “did not induce neurite outgrowth”. Further, the “optimum concentration (maximum neurite elongation and number)” value with PC-12 cells (NGF + DEH 50-100 μM) was 70 µM. For the same compound, the “promotion of the function of NGF (neurite length)” value in the data set with PC-12 cells (NGF addition + DEH addition, p<0.05 vs NGF) is “significantly (p<0.05) promote the function of NGF”. In addition, in data set [3] (1000 μg/mL DEH, 30 minutes), the “Papp (DEH permeability, blood vessel side to brain parenchyma side)” value is reported as 14.62±6.86 ×10^−6 cm/s.
